Laboratory results published in patent US12594252B2, “Methods for treating inflammatory skin conditions” (JOURNEY MEDICAL CORPORATION, priority 2018, dated 2026).

Tested on: subjects diagnosed with papulopustular rosacea
Test: 16-week, multi-center, randomized, double-blind, parallel-group, controlled efficacy study
Type: in vivo, human
Conditions: minocycline about 40 mg, equivalent doses
Procedure: The pharmaceutical compositions as shown in Example 1 and 3 were studied in a 16-week, multi-center, randomized, double-blind, parallel-group, controlled study to evaluate efficacy. Subjects, who were at least 18 years old, diagnosed with papulopustular rosacea were randomized to 4 different treatment groups (50 subjects each in groups 1 to 4). Each subject was allocated to one of the treatment groups, receiving a single dose of Example 1 (Group 1) and Example 3 (Group 2): […]®-40 mg doxycycline capsules (Group 3); and placebo capsules (Group 4), orally for 16 weeks. Subjects' visits were scheduled at screening, baseline (day 1), and weeks 4, 8, 12 and 16. Clinical assessments of efficacy was conducted based on, proportion of subjects with IGA 'treatment success (reduction in IGA grade)' and reduction in total inflammatory lesion count (sum of papules, pustules, and nodules) from baseline (day 1) to weeks 4, 8, 12 and 16. The results are shown in following table 9 (IGA 'treatment success), table 10 (total inflammatory lesion change), table 11 (P values) and FIG. 6, FIG. 7, FIG. 8.

CN(C)c1ccc(O)c2c1C[C@H]1C[C@H]3[C@H](N(C)C)C(O)=C(C(N)=O)C(=O)[C@@]3(O)C(O)=C1C2=O [minocycline, [4S-(4α,4aα,5aα,12aα)]-4,7-Bis(dimethylamino)-1,4,4a,5,5a,6,11,12a-octahydro-3,10,12,12a-tetrahydroxy-1,11-dioxo-2-naphthacenecarboxamide]
% reduction in lesion counts, more as compared to doxycycline (40 mg): about 100%
